From ChEMBL document CHEMBL5131397, “Discovery and Optimization of Pyrazole Amides as Inhibitors of ELOVL1” (J Med Chem, 2021)
The source made the active and inactive calls. The calls are words filed in the database; no cut-off is given here.

Legend:
[1] = molecular target: Voltage-gated inwardly rectifying potassium channel KCNH2 (Homo sapiens, UniProt Q12809); experiment: Inhibition of human ERG by patch-clamp assay; assay type: toxicity
[2] = Reduction in C26:0 LPC level in ABCD1 knock out mouse blood assessed as fold increase at 0.5 to 32 mg/kg, po qd for 105 days by LC-MS/MS analysis; assay type: functional; settings: dose 0.5-32 mg/kg, time 105 day
[3] = molecular target: T1, Very long chain fatty acid elongase 1 (Homo sapiens, UniProt Q9BW60); experiment: Inhibition of ELOVL1 (unknown origin) using C22-acyl-CoA as substrate by radiometric enzyme assay
T1 sequence (Q9BW60 whole entry): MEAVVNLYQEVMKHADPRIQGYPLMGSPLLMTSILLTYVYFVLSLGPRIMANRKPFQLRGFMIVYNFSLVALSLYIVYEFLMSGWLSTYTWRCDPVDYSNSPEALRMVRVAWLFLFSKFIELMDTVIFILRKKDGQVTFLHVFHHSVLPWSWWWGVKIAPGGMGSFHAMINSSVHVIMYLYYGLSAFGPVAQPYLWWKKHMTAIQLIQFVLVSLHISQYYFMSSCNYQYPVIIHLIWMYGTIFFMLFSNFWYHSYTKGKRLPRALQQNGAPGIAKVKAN

[4] = Clearance in mouse at 1 mg/kg, iv upto 48 hrs by LC/MS/MS analysis; assay type: ADME, organism-based; settings: in vivo
[5] = Volume of distribution at steady state in mouse at 1 mg/kg, iv upto 48 hrs by LC/MS/MS analysis; assay type: ADME, organism-based; settings: in vivo, read-out: Vdss
[6] = AUC (infinity) in Cynomolgus monkey at 3 mg/kg, po upto 24 hrs by LC/MS/MS analysis; assay type: ADME, organism-based, Macaca fascicularis; parameters: dose 3 mg/kg, time < 24 hrs, route po; settings: in vivo
[7] = Cmax in Cynomolgus monkey at 3 mg/kg, po upto 24 hrs by LC/MS/MS analysis; assay type: ADME, organism-based, Macaca fascicularis; parameters: time < 24 hrs, dose 3 mg/kg, route po; settings: in vivo
[8] = Oral bioavailability in Beagle dog at 3 mg/kg upto 24 hrs by LC/MS/MS analysis; assay type: ADME, organism-based, Canis lupus familiaris; settings: in vivo
[9] = Plasma protein binding in monkey at 5 uM; assay type: ADME, cell-free, Macaca mulatta; settings: rhesus monkey, read-out: PPB (converted)
[10] = molecular target: Rho-associated protein kinase 1 (Homo sapiens) (UniProt Q13464); experiment: Inhibition of ROCK 1 (unknown origin) at 10 uM
Chain of Rho-associated protein kinase 1 (Homo sapiens) (Q13464 2-1354 limits assumed): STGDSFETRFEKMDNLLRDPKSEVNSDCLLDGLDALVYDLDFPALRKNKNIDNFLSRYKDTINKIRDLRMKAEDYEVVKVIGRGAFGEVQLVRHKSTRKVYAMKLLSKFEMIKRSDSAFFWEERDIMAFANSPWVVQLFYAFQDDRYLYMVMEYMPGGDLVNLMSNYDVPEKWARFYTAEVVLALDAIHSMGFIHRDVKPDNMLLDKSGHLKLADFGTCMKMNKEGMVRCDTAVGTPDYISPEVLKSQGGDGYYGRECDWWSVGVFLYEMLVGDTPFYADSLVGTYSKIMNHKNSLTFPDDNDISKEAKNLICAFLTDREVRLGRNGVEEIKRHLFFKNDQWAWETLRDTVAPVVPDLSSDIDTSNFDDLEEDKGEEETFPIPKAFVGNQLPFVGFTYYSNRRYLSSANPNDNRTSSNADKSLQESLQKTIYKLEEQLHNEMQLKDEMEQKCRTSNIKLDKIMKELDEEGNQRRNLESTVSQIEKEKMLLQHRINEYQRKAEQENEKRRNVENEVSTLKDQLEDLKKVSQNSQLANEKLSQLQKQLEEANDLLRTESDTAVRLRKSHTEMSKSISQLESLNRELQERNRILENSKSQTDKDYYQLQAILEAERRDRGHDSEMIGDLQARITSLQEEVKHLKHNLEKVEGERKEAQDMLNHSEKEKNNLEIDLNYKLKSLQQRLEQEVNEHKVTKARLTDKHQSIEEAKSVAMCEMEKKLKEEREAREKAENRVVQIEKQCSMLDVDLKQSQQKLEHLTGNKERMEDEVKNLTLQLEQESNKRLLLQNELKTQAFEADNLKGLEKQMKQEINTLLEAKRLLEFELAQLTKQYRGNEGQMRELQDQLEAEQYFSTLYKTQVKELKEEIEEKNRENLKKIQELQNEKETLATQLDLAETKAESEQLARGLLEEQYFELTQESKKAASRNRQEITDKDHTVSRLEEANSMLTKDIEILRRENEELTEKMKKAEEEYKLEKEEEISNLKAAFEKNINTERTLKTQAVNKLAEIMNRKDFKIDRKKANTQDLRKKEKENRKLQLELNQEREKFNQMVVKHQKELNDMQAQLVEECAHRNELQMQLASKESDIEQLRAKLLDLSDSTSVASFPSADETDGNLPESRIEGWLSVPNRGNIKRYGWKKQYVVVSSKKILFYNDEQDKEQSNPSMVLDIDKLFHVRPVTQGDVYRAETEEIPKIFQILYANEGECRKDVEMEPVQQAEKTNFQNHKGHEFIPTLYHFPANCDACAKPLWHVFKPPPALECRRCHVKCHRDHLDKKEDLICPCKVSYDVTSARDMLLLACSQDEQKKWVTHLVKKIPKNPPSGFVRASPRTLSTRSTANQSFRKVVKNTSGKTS

[11] = molecular target: T1, Very long chain fatty acid elongase 1; experiment: Inhibition of ELOVL1 in AMN 1 patient-derived fibroblast assessed as reduction of C26:0 VLCFA synthesis incubated for 48 hrs by cellular assay; assay type: cell-based
[12] = molecular target: T1, Very long chain fatty acid elongase 1; experiment: Inhibition of ELOVL1 in Het […] 2 patient-derived human lymphocyte assessed as reduction of C26:0 VLCFA synthesis incubated for 48 hrs by cellular assay; assay type: cell-based
[13] = molecular target: T2, Very long chain fatty acid elongase 7 (Homo sapiens) (UniProt A1L3X0); experiment: Inhibition of ELOVL-7 in human HEK2936E cells assessed as reduction in C22:0 lysophosphatidyl choline synthesis at 100 nM in presence of 13C-labeled acetate measured after 48 hrs; assay type: cell-based
T2 sequence (whole entry): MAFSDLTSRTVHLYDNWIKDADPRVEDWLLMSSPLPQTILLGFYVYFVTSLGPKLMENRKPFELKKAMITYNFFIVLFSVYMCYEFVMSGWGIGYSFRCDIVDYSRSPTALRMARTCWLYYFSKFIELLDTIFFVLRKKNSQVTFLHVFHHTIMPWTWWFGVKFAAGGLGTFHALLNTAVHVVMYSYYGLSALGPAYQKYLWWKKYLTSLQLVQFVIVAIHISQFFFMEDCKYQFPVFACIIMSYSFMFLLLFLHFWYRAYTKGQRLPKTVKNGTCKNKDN

[14] = molecular target: T3, Very long chain fatty acid elongase 1 (Homo sapiens) (UniProt Q9BW60); experiment: Inhibition of ELOVL-1 in human HEK2936E cells assessed as reduction in C26:0 lysophosphatidyl choline synthesis at 100 nM in presence of 13C-labeled acetate measured after 48 hrs; assay type: cell-based
T3 sequence (whole entry): T1 sequence (Q9BW60 whole entry)

Fibroblast = experiment: Reduction in C26:0/C16:0 lysophosphatidyl choline levels in primary human CALD patient-derived fibroblast incubated for 48 hrs; assay type: functional, cell-based
HEK-293T = experiment: Reduction in C26:0 LPC level in isogenic wild-type human HEK-293T cells with ELOVL-1 expression in presence of 13C-labeled acetate measured after 48 hrs by mass spectroscopy; assay type: functional, cell-based
Mus musculus = experiment: Reduction in C26:0 LPC level in wild-type C57BL/6 mouse blood administered orally qd for 105 days by LC-MS/MS analysis; assay type: functional, tissue-based; settings: route po, time 105.0 day, DDE = dose-dependent effect
[15] = Reduction in C26:0 LPC level in wild-type C57BL/6 mouse blood at 2 to 32 mg/kg, po qd for 105 days by LC-MS/MS analysis relative to control; assay type: functional; parameters: scale not given: the % may be the effect or the level left; settings: dose 2-32 mg/kg, time 105 day
[16] = Reduction in C26:0/C16:0 LPC level in ABCD1 knock out mouse CNS at 16 mg/kg, po qd measured after 6 months of dosing by LC-MS/SMS analysis; assay type: functional; parameters: scale not given: the % may be the effect or the level left; settings: 4380 h
[17] = Reduction in C26:0 LPC level in ABCD1 knock out mouse CNS at 8 mg/kg, po qd measured after 6 months of dosing by LC-MS/MS analysis; assay type: functional; parameters: scale not given: the % may be the effect or the level left; settings: 4380 h
[18] = Increase in C20:0/C16:0 total VLCFA levels in ABCD1 knock out mouse CNS at 1 to 10 mg/kg, po qd measured after 3 months of dosing by LC-MS/MS analysis; assay type: functional; settings: dose 1-10 mg/kg, 2190 h
[19] = Toxicity in Sprague-Dawley rat assessed as erosion of forestomach at 5 to 50 mg/kg/day, po administered for 2 to 8 weeks; assay type: organism-based; settings: in vivo, dose lower 5 mg/kg/day, time lower 2 weeks, dose upper 50 mg/kg/day, time upper 8 weeks
[20] = Toxicity in Sprague-Dawley rat assessed as reversal of lesions at 5 to 50 mg/kg/day, po administered for 8 weeks and measured after cessation dosing; assay type: organism-based; settings: in vivo, 1344 h, dose 5-50 mg/kg/day
[21] = Toxicity in Sprague-Dawley rat assessed as corneal opacities at 5 mg/kg/day, po administered for 8 weeks by macroscopic observation analysis; assay type: organism-based; settings: in vivo, 1344 h
[22] = Toxicity in Sprague-Dawley rat assessed as ocular hyperplasia at 5 mg/kg/day, po administered for 8 weeks by microscopic observation analysis; assay type: organism-based; settings: in vivo, 1344 h
[23] = Toxicity in Sprague-Dawley rat assessed as ocular inflammation at 5 mg/kg/day, po administered for 8 weeks by microscopic observation analysis; assay type: organism-based; settings: in vivo, 1344 h
[24] = Toxicity in juvenile Sprague-Dawley rat assessed as clonic convulsions 5 to 75 mg/kg/day, po treatment started from postnatal day 75 to 114 days measured after cessation of dosing; assay type: organism-based; settings: in vivo, dose lower 5 mg/kg/day, time lower 75 day, dose upper 75 mg/kg/day, time upper 114 day
[25] = Toxicity in Cynomolgus monkey assessed as ataxia at 50 mg/kg/day, po administered for 14 days; assay type: organism-based, Macaca fascicularis; settings: in vivo, 336 h, time 14 day
[26] = Toxicity in Cynomolgus monkey assessed as dry and red scaly areas on eyelids at 5 to 50 mg/kg/day, po administered for 14 days by macroscopic observation analysis; assay type: organism-based, Macaca fascicularis; settings: in vivo, 336 h, dose 5-50 mg/kg/day, time 14 day

Chain of Voltage-gated inwardly rectifying potassium channel KCNH2 (Q12809 whole entry): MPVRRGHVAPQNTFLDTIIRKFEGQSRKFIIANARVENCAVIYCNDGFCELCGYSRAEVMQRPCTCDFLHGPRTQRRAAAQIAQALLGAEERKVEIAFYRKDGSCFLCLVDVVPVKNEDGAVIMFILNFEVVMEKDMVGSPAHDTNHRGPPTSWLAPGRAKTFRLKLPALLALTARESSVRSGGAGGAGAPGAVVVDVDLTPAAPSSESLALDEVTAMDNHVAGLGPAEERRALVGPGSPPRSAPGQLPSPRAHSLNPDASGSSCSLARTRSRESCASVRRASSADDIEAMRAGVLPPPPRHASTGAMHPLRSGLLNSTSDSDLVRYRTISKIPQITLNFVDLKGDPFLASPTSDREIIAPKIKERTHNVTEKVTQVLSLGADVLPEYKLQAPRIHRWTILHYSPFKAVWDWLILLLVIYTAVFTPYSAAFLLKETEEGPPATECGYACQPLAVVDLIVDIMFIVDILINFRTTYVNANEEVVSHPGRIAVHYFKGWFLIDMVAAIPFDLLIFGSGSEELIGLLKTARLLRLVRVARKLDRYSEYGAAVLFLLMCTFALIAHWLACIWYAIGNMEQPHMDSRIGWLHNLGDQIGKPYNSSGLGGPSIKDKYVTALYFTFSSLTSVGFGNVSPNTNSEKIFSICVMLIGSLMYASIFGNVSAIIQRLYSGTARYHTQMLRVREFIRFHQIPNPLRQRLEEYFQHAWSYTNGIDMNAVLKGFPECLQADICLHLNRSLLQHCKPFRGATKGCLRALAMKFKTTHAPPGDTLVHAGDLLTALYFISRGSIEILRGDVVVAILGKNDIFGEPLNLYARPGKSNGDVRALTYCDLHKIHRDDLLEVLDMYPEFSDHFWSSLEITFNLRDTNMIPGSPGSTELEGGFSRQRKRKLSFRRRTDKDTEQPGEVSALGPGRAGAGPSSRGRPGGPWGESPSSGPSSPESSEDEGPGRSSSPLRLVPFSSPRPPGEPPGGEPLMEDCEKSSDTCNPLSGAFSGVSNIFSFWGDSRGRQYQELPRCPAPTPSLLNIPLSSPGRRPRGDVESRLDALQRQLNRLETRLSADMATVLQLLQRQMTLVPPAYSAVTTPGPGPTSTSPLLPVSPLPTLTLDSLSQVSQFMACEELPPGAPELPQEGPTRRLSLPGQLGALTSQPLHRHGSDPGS

IC50 [3]: 900 nM
clearance [4]: 10.7 mL/min/kg
Vd [5]: 2.6 L/kg
AUC(0-inf) [6]: 7700 ng·h/mL
Cmax [7]: 404 ng/mL
bioavailability [8]: 77%
fraction unbound at 5 µM [9]: 0.094
inhibition [10]: > 50%
IC50 [11]: 43 nM
IC50 [12]: 9 nM
inhibition [13]: Active
inhibition [14]: Active
SMILES: O=C(Nc1ccn(-c2ccnc(F)c2)n1)C1(c2ccccc2F)CC1
IC50 [1]: > 30000 nM
fold change (FC) [2]: 10
Activity (Fibroblast): Active
Activity (HEK-293T): Active
Activity (Mus musculus): Dde
Activity [15]: 67%
Activity [16]: 55%
Activity [17]: 49%
Activity [18]: <6%
Activity [19]: Toxic
Activity [20]: Non-Toxic
Activity [21]: Toxic
Activity [22]: Toxic
Activity [23]: Toxic
Activity [24]: Toxic
Activity [25]: Toxic
Activity [26]: Toxic
